Inhibition data for 1 molecule are collected here from ChEMBL document CHEMBL4507325 (2021).

What all share (conditions): Compound concentration 10.0 uM
The target of experiment [1] is Sodium-dependent noradrenaline transporter (Homo sapiens) (UniProt P23975).
The target of experiment [2] is Mu-type opioid receptor (Homo sapiens) (UniProt P35372).
In experiment [3] the target is Histamine H1 receptor (Homo sapiens) (UniProt P35367).
In experiment [4] the target is Histamine H2 receptor (Homo sapiens) (UniProt P25021).
In experiment [5] the target is Alpha-1B adrenergic receptor (Homo sapiens) (UniProt P35368).
The species named for experiment [6] is Rattus norvegicus.
Experiment [7] has as its target Sigma non-opioid intracellular receptor 1 (Homo sapiens) (UniProt Q99720).
Experiment [8] addresses Delta-type opioid receptor (Homo sapiens) (UniProt P41143).
Experiment [9] is filed under the species Oryctolagus cuniculus.
The target of experiment [10] is Equilibrative nucleoside transporter 1/2/3/4 (Homo sapiens) (UniProt Q99808+Q7RTT9+Q14542+Q9BZD2).
Equilibrative nucleoside transporter 1/2/3/4 (Homo sapiens), sequence (Q14542 whole entry, looked up): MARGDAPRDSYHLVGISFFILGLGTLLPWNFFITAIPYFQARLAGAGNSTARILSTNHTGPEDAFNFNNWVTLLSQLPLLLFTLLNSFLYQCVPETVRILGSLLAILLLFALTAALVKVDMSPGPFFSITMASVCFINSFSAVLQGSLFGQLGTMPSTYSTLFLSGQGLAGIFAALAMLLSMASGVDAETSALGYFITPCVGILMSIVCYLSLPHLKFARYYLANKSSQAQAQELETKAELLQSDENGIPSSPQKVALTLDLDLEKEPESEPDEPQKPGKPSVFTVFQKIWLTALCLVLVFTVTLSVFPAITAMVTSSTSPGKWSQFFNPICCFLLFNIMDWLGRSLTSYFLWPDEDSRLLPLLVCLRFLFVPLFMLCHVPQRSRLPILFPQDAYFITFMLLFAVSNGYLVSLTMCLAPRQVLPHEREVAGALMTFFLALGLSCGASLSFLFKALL
Equilibrative nucleoside transporter 1/2/3/4 (Homo sapiens), sequence (Q7RTT9 whole entry, looked up): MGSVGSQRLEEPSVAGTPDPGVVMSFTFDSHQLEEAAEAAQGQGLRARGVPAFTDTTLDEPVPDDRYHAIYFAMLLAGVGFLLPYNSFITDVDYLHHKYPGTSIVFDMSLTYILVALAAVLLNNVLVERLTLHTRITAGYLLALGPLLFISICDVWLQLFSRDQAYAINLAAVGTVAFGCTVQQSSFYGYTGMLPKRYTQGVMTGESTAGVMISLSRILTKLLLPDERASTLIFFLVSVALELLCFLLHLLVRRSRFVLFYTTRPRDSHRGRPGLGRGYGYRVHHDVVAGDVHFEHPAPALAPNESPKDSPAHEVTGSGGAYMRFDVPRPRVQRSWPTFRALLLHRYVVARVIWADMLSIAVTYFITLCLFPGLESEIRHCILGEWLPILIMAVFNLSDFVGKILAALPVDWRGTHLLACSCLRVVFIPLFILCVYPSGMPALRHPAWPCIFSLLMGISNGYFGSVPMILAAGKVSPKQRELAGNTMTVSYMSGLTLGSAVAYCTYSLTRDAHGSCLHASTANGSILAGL
Equilibrative nucleoside transporter 1/2/3/4 (Homo sapiens), sequence (Q99808 whole entry, looked up): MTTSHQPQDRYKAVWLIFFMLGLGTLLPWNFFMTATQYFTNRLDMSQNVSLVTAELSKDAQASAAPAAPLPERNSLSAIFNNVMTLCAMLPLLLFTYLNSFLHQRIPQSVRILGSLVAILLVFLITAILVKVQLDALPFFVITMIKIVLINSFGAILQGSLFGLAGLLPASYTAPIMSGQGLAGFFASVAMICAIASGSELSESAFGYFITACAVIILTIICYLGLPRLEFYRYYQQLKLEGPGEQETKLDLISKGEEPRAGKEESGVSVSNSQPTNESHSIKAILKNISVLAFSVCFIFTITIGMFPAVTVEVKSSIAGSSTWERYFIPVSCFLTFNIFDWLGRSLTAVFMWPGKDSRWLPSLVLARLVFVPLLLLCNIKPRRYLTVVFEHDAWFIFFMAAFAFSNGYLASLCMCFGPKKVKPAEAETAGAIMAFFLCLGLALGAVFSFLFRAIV
Equilibrative nucleoside transporter 1/2/3/4 (Homo sapiens), sequence (Q9BZD2 whole entry, looked up): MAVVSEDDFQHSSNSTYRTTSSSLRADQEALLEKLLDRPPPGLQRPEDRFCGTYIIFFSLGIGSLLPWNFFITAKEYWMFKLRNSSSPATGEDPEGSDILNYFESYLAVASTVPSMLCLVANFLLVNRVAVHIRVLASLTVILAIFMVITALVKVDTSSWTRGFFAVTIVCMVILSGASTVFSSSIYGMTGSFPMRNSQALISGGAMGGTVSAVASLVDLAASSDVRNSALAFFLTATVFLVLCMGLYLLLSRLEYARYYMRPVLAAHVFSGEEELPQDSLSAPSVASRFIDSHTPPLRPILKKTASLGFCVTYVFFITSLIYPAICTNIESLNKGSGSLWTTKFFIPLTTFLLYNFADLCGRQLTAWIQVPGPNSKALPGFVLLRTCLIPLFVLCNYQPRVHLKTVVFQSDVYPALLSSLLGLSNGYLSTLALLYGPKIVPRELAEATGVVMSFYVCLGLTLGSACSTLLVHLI

Sodium-dependent noradrenaline transporter (Homo sapiens), sequence (P23975 whole entry): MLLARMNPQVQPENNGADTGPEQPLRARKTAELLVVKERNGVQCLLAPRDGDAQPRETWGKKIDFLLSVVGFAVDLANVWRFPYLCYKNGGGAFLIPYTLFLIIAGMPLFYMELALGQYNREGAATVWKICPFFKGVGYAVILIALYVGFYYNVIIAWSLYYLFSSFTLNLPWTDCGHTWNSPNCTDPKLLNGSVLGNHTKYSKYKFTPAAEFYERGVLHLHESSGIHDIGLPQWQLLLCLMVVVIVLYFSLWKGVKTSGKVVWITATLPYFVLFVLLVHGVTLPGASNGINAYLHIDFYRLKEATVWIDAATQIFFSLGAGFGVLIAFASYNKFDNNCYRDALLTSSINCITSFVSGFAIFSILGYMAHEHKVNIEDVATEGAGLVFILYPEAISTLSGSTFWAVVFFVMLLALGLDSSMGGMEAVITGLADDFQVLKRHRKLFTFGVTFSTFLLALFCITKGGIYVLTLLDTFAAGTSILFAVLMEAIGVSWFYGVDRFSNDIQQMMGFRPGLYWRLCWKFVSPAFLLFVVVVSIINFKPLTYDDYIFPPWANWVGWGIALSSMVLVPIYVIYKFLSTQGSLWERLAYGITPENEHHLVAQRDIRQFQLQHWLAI
Sigma non-opioid intracellular receptor 1 (Homo sapiens), sequence (Q99720 whole entry): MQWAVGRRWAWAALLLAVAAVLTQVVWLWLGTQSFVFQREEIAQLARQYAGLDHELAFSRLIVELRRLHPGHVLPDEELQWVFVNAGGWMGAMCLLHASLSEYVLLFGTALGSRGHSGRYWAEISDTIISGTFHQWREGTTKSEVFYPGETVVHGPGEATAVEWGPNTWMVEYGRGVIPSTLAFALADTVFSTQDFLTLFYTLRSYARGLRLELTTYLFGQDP
Histamine H1 receptor (Homo sapiens), sequence (P35367 whole entry): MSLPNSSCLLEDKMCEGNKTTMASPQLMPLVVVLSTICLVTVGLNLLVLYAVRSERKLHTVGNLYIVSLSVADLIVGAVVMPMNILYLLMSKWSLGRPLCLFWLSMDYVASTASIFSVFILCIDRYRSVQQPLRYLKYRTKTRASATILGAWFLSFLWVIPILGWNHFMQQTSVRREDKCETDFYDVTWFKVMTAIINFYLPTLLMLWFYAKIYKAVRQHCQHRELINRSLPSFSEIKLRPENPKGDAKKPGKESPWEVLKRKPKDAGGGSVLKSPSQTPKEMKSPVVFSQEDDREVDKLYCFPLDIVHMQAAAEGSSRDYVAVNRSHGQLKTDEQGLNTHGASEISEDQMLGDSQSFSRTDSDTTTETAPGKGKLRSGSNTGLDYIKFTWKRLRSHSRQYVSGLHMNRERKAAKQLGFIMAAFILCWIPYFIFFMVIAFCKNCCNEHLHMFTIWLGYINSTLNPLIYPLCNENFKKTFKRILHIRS
Histamine H2 receptor (Homo sapiens), sequence (P25021 whole entry): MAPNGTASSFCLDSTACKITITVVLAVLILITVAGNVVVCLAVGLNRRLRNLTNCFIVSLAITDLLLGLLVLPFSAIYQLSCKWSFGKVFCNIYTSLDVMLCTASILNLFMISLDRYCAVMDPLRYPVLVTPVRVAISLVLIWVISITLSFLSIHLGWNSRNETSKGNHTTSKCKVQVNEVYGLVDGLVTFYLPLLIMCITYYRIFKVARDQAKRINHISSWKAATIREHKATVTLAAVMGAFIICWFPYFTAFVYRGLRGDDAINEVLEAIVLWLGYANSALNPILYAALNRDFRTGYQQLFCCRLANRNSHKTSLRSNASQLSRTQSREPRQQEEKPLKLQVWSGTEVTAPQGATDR
Alpha-1B adrenergic receptor (Homo sapiens), sequence (P35368 whole entry): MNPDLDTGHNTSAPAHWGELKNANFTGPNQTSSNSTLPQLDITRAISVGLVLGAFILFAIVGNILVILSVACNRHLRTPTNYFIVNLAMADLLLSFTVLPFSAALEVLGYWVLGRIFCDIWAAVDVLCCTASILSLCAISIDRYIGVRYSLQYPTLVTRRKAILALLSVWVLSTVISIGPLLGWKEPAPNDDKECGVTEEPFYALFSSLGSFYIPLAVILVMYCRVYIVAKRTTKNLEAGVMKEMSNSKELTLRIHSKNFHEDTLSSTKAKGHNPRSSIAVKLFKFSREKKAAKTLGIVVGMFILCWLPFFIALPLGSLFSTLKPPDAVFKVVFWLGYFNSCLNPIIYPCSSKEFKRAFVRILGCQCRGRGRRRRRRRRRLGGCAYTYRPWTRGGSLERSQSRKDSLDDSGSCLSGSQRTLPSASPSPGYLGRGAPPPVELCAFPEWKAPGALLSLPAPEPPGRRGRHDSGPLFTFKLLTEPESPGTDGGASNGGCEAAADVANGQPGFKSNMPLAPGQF
Delta-type opioid receptor (Homo sapiens), sequence (P41143 whole entry): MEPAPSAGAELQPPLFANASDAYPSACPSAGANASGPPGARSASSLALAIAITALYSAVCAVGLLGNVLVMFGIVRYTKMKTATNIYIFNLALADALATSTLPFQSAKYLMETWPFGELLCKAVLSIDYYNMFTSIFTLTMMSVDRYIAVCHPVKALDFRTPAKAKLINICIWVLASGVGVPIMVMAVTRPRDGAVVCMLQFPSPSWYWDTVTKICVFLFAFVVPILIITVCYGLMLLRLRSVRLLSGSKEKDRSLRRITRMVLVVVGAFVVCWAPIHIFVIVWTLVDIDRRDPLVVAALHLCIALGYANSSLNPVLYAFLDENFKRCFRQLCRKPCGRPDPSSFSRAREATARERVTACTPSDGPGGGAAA
Mu-type opioid receptor (Homo sapiens), sequence (P35372 whole entry): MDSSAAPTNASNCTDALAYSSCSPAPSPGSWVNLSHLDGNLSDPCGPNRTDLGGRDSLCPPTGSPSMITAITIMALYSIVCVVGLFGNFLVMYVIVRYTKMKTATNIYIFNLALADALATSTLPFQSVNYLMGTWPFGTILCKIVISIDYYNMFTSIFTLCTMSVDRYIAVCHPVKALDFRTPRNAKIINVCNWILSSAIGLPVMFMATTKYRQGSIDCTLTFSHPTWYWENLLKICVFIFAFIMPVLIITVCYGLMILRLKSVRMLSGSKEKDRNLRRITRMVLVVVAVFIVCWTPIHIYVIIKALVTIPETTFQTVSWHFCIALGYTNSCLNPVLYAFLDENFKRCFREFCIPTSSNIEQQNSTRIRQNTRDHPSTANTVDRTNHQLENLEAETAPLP

A word on the inhibition: it is the relative decrease from the control value, in per cent. Consider `Cc1ccccc1Oc1cc(-n2c(=O)cc(C(F)(F)F)[nH]c2=O)c2ccccc2c1Cl` [BAY-069], for which the inhibition in [1] is -1.01%; in [2], 20.9%; in experiment [3], 10.3%; in experiment [4], 5.46%; in experiment [5] it was 19.3%; in experiment [6], 63.9%. The inhibition was 19% in experiment [7], -3% in [8], 11% in experiment [9] and 28% in [10].
